PubChem BioAssay AID248 (DTP/NCI, 2004)
Where “and” joins values, the source holds several entries; their conditions need not be identical. Identical values can stand only once. Toxic doses and inconclusive results are not listed.

Test system: L1210 leukemia ip in BDF1 mice, survival T/C
Assay: NCI In Vivo Anticancer Drug Screen. Data for tumor model L1210 Leukemia (intraperitoneal) in B6D2F1 (BDF1) mice
Details: endpoint: mean survival time, higher = longer survival
How it was run: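 In this screen, tumor-bearing mice given compound are compared to those given vehicle, and their survival values are reported as a treated-to-control quotient.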

[1] = dose: 100.0 mg/kg/injection, schedule: Q01DX009 (ip), vehicle: Klucel (hydroxypropylcellulose) (HPC)
[2] = dose: 100.0 mg/kg/injection, schedule: Q04DX003 (ip), vehicle: Klucel (hydroxypropylcellulose) (HPC)
[3] = dose: 200.0 mg/kg/injection, schedule: Q01DX009 (ip), vehicle: Klucel (hydroxypropylcellulose) (HPC)
[4] = dose: 200.0 mg/kg/injection, schedule: Q04DX003 (ip), vehicle: Klucel (hydroxypropylcellulose) (HPC)
[5] = dose: 400.0 mg/kg/injection, schedule: Q01DX009 (ip), vehicle: Klucel (hydroxypropylcellulose) (HPC)
[6] = dose: 400.0 mg/kg/injection, schedule: Q04DX003 (ip), vehicle: Klucel (hydroxypropylcellulose) (HPC)
[7] = dose: 12.5 mg/kg/injection, schedule: Q01DX009 (ip), vehicle: saline
[8] = dose: 25.0 mg/kg/injection, schedule: Q04DX003 (ip), vehicle: saline
[9] = dose: 50.0 mg/kg/injection, schedule: Q04DX003 (ip), vehicle: saline
[10] = dose: 100.0 mg/kg/injection, schedule: Q01DX001 (ip), vehicle: carboxymethylcellulose (CMC)
[11] = dose: 200.0 mg/kg/injection, schedule: Q01DX001 (ip), vehicle: carboxymethylcellulose (CMC)
[12] = dose: 400.0 mg/kg/injection, schedule: Q01DX001 (ip), vehicle: carboxymethylcellulose (CMC)
[13] = dose: 100.0 mg/kg/injection, schedule: Q04DX003 (ip), vehicle: saline with Tween-80

Structure (SMILES): COc1ccc(COC(=O)Nc2cccc(Cl)c2)cc1
- T/C (dose: 100.0 mg/kg/injection, schedule: Q01DX001 (ip), vehicle: Klucel (hydroxypropylcellulose) (HPC)): 111 % of control
- T/C [1]: 93 % of control and 97 % of control
- T/C (dose: 100.0 mg/kg/injection, schedule: Q04DX002 (ip), vehicle: Klucel (hydroxypropylcellulose) (HPC)): 100 % of control
- T/C [2]: 108 % of control
- T/C (dose: 200.0 mg/kg/injection, schedule: Q01DX001 (ip), vehicle: Klucel (hydroxypropylcellulose) (HPC)): 101 % of control
- T/C [3]: 90 % of control and 92 % of control
- T/C (dose: 200.0 mg/kg/injection, schedule: Q04DX002 (ip), vehicle: Klucel (hydroxypropylcellulose) (HPC)): 104 % of control
- T/C [4]: 102 % of control
- T/C (dose: 400.0 mg/kg/injection, schedule: Q01DX001 (ip), vehicle: Klucel (hydroxypropylcellulose) (HPC)): 95 % of control
- T/C [5]: 93 % of control and 90 % of control
- T/C [6]: 111 % of control

Structure (SMILES): C#CC1(NC(c2cc(Cl)cc(Cl)c2O)P(=O)(c2ccccc2)c2ccccc2)CCCCC1 (stereo unspecified)
- T/C [1]: 94 % of control
- T/C [3]: 102 % of control

Structure (SMILES): COC1OC(CO)C(O)C(NC(=O)N(C)N=O)C1O (stereo unspecified)
- T/C [7]: 112 % of control
- T/C [8]: 106 % of control
- T/C (dose: 44.0 mg/kg/injection, schedule: Q01DX009 (ip), vehicle: saline): 124 % of control
- T/C (dose: 50.0 mg/kg/injection, schedule: Q01DX009 (ip), vehicle: saline): 181 % of control
- T/C [9]: 105 % of control
- T/C (dose: 66.0 mg/kg/injection, schedule: Q04DX003 (ip), vehicle: saline): 100 % of control
- T/C (dose: 100.0 mg/kg/injection, schedule: Q01DX009 (ip), vehicle: saline): 103 % of control and 218 % of control
- T/C [2]: 119 % of control
- T/C (dose: 100.0 mg/kg/injection, schedule: Q04DX003 (ip), vehicle: saline): 158 % of control
- T/C (dose: 150.0 mg/kg/injection, schedule: Q04DX003 (ip), vehicle: saline): 105 % of control
- T/C (dose: 200.0 mg/kg/injection, schedule: Q04DX003 (ip), vehicle: saline): 166 % of control
- T/C (dose: 400.0 mg/kg/injection, schedule: Q01DX009 (ip), vehicle: saline): 100 % of control
- T/C [6]: 171 % of control
- T/C (dose: 400.0 mg/kg/injection, schedule: Q04DX003 (ip), vehicle: saline): 100 % of control and 214 % of control

Structure (SMILES): CC1(C)C2CC3CC(C(=O)O)C(C(=O)O)CC3(C2)C1Br (stereo unspecified)
- T/C [2]: 101 % of control
- T/C [4]: 101 % of control
- T/C [6]: 101 % of control

Structure (SMILES): CCCC(=O)NC1=C(N2CC2)C(=O)C(NC(=O)CCC)=C(N2CC2)C1=O
- T/C (dose: 0.13 mg/kg/injection, schedule: Q01DX010 (oral), vehicle: saline): 104 % of control
- T/C (dose: 0.25 mg/kg/injection, schedule: Q01DX010 (oral), vehicle: saline): 110 % of control
- T/C (dose: 0.5 mg/kg/injection, schedule: Q01DX010 (oral), vehicle: saline): 116 % of control
- T/C (dose: 1.0 mg/kg/injection, schedule: Q01DX010 (oral), vehicle: saline): 116 % of control
- T/C (dose: 1.0 mg/kg/injection, schedule: Q01DX Z (ip), vehicle: saline): 124 % of control
- T/C (dose: 2.0 mg/kg/injection, schedule: Q01DX Z (ip), vehicle: saline): 166 % of control and 193 % of control
- T/C (dose: 4.0 mg/kg/injection, schedule: Q01DX010 (oral), vehicle: saline): 154 % of control
- T/C (dose: 8.0 mg/kg/injection, schedule: Q01DX Z (ip), vehicle: saline): 100 % of control

Structure (SMILES): CCOC(=O)Nc1cc(Nc2ccc(Cl)cc2)c2ncc(C)nc2n1
- T/C (dose: 25.0 mg/kg/injection, schedule: Q04DX003 (ip), vehicle: Klucel (hydroxypropylcellulose) (HPC)): 102 % of control
- T/C (dose: 50.0 mg/kg/injection, schedule: Q04DX003 (ip), vehicle: Klucel (hydroxypropylcellulose) (HPC)): 102 % of control
- T/C [2]: 96 % of control

Structure (SMILES): O=C(COc1ccc(Cl)cc1Cl)Nc1cccc2c1C(=O)c1ccccc1C2=O
- T/C (dose: 100.0 mg/kg/injection, schedule: Q04DX002 (ip), vehicle: saline + alcohol): 96 % of control
- T/C (dose: 200.0 mg/kg/injection, schedule: Q04DX002 (ip), vehicle: saline + alcohol): 100 % of control
- T/C (dose: 400.0 mg/kg/injection, schedule: Q04DX002 (ip), vehicle: saline + alcohol): 96 % of control

Structure (SMILES): O=S(=O)(Nc1cccc2ccccc12)c1ccc(Cl)cc1
- T/C [1]: 102 % of control
- T/C [3]: 87 % of control
- T/C [5]: 95 % of control

Structure (SMILES): O=C(C(=O)c1ccco1)c1ccccc1
- T/C (dose: 75.0 mg/kg/injection, schedule: Q01DX001 (ip), vehicle: carboxymethylcellulose (CMC)): 100 % of control
- T/C (dose: 150.0 mg/kg/injection, schedule: Q01DX001 (ip), vehicle: carboxymethylcellulose (CMC)): 102 % of control
- T/C (dose: 300.0 mg/kg/injection, schedule: Q01DX001 (ip), vehicle: carboxymethylcellulose (CMC)): 97 % of control

Structure (SMILES): CC(C)(C)C(=O)C(O)C(C)(C)C (stereo unspecified)
- T/C (dose: 100.0 mg/kg/injection, schedule: Q01DX001 (ip), vehicle: saline): 95 % of control
- T/C (dose: 200.0 mg/kg/injection, schedule: Q01DX001 (ip), vehicle: saline): 97 % of control
- T/C (dose: 400.0 mg/kg/injection, schedule: Q01DX001 (ip), vehicle: saline): 93 % of control

Structure (SMILES): O=C1c2cc(F)ccc2-c2cc(Br)c([N+](=O)[O-])cc21
- T/C [10]: 97 % of control
- T/C [11]: 103 % of control
- T/C [12]: 95 % of control

Structure (SMILES): CCCCCCCC/C=C\CCCCCCCC(=O)OCC#CCOC(=O)CCCCCCC/C=C/CCCCCCCC
- T/C (dose: 100.0 mg/kg/injection, schedule: Q01DX001 (ip), vehicle: saline with Tween-80): 94 % of control
- T/C (dose: 100.0 mg/kg/injection, schedule: Q01DX009 (ip), vehicle: saline with Tween-80): 95 % of control and 101 % of control
- T/C (dose: 100.0 mg/kg/injection, schedule: Q04DX002 (ip), vehicle: saline with Tween-80): 97 % of control and 102 % of control
- T/C (dose: 200.0 mg/kg/injection, schedule: Q01DX001 (ip), vehicle: saline with Tween-80): 91 % of control
- T/C (dose: 200.0 mg/kg/injection, schedule: Q01DX009 (ip), vehicle: saline with Tween-80): 93 % of control and 94 % of control
- T/C (dose: 200.0 mg/kg/injection, schedule: Q04DX002 (ip), vehicle: saline with Tween-80): 97 % of control and 104 % of control
- T/C (dose: 400.0 mg/kg/injection, schedule: Q01DX001 (ip), vehicle: saline with Tween-80): 94 % of control
- T/C (dose: 400.0 mg/kg/injection, schedule: Q01DX009 (ip), vehicle: saline with Tween-80): 95 % of control and 97 % of control
- T/C (dose: 400.0 mg/kg/injection, schedule: Q04DX002 (ip), vehicle: saline with Tween-80): 96 % of control and 108 % of control

Structure (SMILES): c1ccc2c(c1)[nH]c1ccncc12
- T/C (dose: 25.0 mg/kg/injection, schedule: Q04DX003 (ip), vehicle: saline with Tween-80): 101 % of control
- T/C (dose: 50.0 mg/kg/injection, schedule: Q04DX003 (ip), vehicle: saline with Tween-80): 95 % of control
- T/C [13]: 97 % of control

Structure (SMILES): O=c1nc(NO)ccn1C1CCCO1 (stereo unspecified)
- T/C [10]: 96 % of control
- T/C [11]: 100 % of control
- T/C [12]: 96 % of control

Structure (SMILES): Clc1ccc(C(c2cccs2)N2CCNCC2)cc1 (stereo unspecified)
- T/C (dose: 25.0 mg/kg/injection, schedule: Q01DX009 (ip), vehicle: saline with Tween-80): 96 % of control
- T/C (dose: 50.0 mg/kg/injection, schedule: Q01DX009 (ip), vehicle: saline with Tween-80): 90 % of control
- T/C [13]: 98 % of control

Structure (SMILES): COC1=C(Cl)C(=O)C(OC)=C(Cl)C1=O
- T/C (dose: 5.0 mg/kg/injection, schedule: Q01DX001 (ip), vehicle: saline): 97 % of control
- T/C (dose: 10.0 mg/kg/injection, schedule: Q01DX001 (ip), vehicle: saline): 95 % of control
- T/C (dose: 20.0 mg/kg/injection, schedule: Q01DX001 (ip), vehicle: saline): 106 % of control
- T/C (dose: 40.0 mg/kg/injection, schedule: Q01DX001 (ip), vehicle: saline): 101 % of control

Structure (SMILES): CC(C)=C1C2C=CC1C(CO)C2CO (stereo unspecified)
- T/C [1]: 106 % of control
- T/C [2]: 105 % of control
- T/C [3]: 91 % of control
- T/C [4]: 114 % of control
- T/C [5]: 102 % of control
- T/C [6]: 102 % of control

Structure (SMILES): C[N+](C)(C)CCCC1C2CCC(C2)C1C#N (stereo unspecified)
- T/C (dose: 3.13 mg/kg/injection, schedule: Q01DX009 (ip), vehicle: saline): 101 % of control
- T/C (dose: 6.25 mg/kg/injection, schedule: Q01DX009 (ip), vehicle: saline): 97 % of control
- T/C [7]: 98 % of control and 101 % of control
- T/C (dose: 12.5 mg/kg/injection, schedule: Q04DX003 (ip), vehicle: saline): 102 % of control
- T/C [8]: 98 % of control
- T/C [9]: 96 % of control

Structure (SMILES): Clc1ccccc1/C=C1\c2ccc(Br)cc2-c2cccc[n+]21
- T/C (dose: 75.0 mg/kg/injection, schedule: Q01DX001 (ip), vehicle: other): 87 % of control
